The record followed here is ChEMBL document CHEMBL3046636, “Synthesis and anti-juvenile hormone activity of ethyl 4-(2-aryloxyhexyloxy)benzoates” (2006).

For experiment [1], the system named is Bombyx mori. Description: Induction of precocious metamorphosis in newly molted fourth-instar larvae of Bombyx mori assessed as precocious metamorphosis measured after topical treatment. The experiment is classed as functional, organism-based.
The test system of experiment [2] is Bombyx mori. Description: Induction of precocious metamorphosis in 24 hr old third-instar larvae of Bombyx mori assessed as precocious metamorphosis at 10 ug/larva topically by antijuvenile hormone activity assay. The experiment is classed as functional.
The subject of experiment [3] is Bombyx mori. Put plainly: Induction of precocious metamorphosis in 24 hr old third-instar larvae of Bombyx mori assessed as precocious metamorphosis at 1 ug/larva topically by antijuvenile hormone activity assay. The experiment is classed as functional.
Experiment [4] deals with Bombyx mori. Description: Induction of precocious metamorphosis in 24 hr old third-instar larvae of Bombyx mori assessed as precocious metamorphosis at 40 ug/larva topically by antijuvenile hormone activity assay. The class given is functional.
The test system of experiment [5] is Bombyx mori. Description: Induction of precocious metamorphosis in 24 hr old third-instar larvae of Bombyx mori assessed as precocious metamorphosis at 50 ppm dietary administration by antijuvenile hormone activity assay. The class given is functional.
For experiment [6], the system named is Bombyx mori. Description: Induction of precocious metamorphosis in 24 hr old third-instar larvae of Bombyx mori assessed as precocious metamorphosis at 200 ppm dietary administration by antijuvenile hormone activity assay. The experiment is classed as functional.

The structures appear in SMILES notation. Calls of active or inactive are those of the source. The rule behind the calls is not given here.

For `CCCCC(COc1ccc(C(=O)OCC)cc1)Oc1ccc(Cl)cc1` (stereo not given), the result in the experiment with Bombyx mori [1] was inactive. Also, the figures for the Activity with Bombyx mori [2] and with Bombyx mori [3] were 30% and 0%, respectively.
Regarding `CCCCC(COc1ccc(C(=O)OCC)cc1)Oc1ccc(C)nc1` (stereo not given), in the experiment with Bombyx mori [1], the result was inactive. Also, the values for the Activity in the experiment with Bombyx mori [4], with Bombyx mori [2] and in the experiment with Bombyx mori [3] were 75%, 20% and 20%, respectively.
Turning to `CCCCC(COc1ccc(C(=O)OCC)cc1)Oc1ccccc1` (stereo not given), the Activity came to 25% in the experiment with Bombyx mori [5]; 70% in the experiment on Bombyx mori [4]; 66% in the experiment on Bombyx mori [2]; 75% in the experiment with Bombyx mori [6]; 32% in the experiment on Bombyx mori [3]. In the experiment on Bombyx mori [1], the result was inactive.
As for `CCCCC(COc1ccc(C(=O)OCC)cc1)Oc1cccnc1` (stereo not given), the result in the experiment with Bombyx mori [1] was inactive. Besides, the Activity turned out to be 57% with Bombyx mori [4], 47% with Bombyx mori [2] and 10% with Bombyx mori [3].
For `CCCCC(COc1ccc(C(=O)OCC)cc1)Oc1ccncc1` (stereo not given), the result in the experiment on Bombyx mori [1] was inactive. Moreover, the Activity with Bombyx mori [2] and with Bombyx mori [3] was 0% in each case.
For `CCCCC(COc1ccc(C(=O)O)cc1)Oc1ccccc1` (stereo not given), the Activity in the experiment on Bombyx mori [5] and in the experiment on Bombyx mori [6] was 0% in each case.
As to `CCCCC(COc1ccc(C(=O)OCC)cc1)Oc1cccc(Cl)c1` (stereo not given), the result in the experiment with Bombyx mori [1] was inactive. In addition, the Activity stood at 75% with Bombyx mori [4], 45% in the experiment on Bombyx mori [2] and 25% with Bombyx mori [3].
As for `CCCCC(COc1ccc(C(=O)OCC)cc1)Oc1ccc(C)cc1` (stereo not given), the outcome with Bombyx mori [1] was inactive. In addition, the values for the Activity with Bombyx mori [4], with Bombyx mori [2] and in the experiment with Bombyx mori [3] were 58%, 45% and 5%, respectively.
With `CCCCC(COc1ccc(C(=O)OCC)cc1)Oc1ccccc1C` (stereo not given), in the experiment with Bombyx mori [1], the result was inactive. Further, the Activity turned out to be 10% in the experiment on Bombyx mori [2] and 0% in the experiment on Bombyx mori [3].
On to `CCCCC(COc1ccc(C(=O)OCC)cc1)Oc1cccc(C)c1` (stereo not given), for which the result in the experiment on Bombyx mori [1] was inactive. In addition, the Activity came to 55% in the experiment on Bombyx mori [4], 5% in the experiment on Bombyx mori [2] and 0% with Bombyx mori [3].
Consider `CCCCC(COc1ccc(C(=O)OCC)cc1)Oc1ccccc1Cl` (stereo not given), for which, in the experiment on Bombyx mori [1], the result was inactive. For the same molecule, the Activity with Bombyx mori [2] and in the experiment with Bombyx mori [3] was 0% throughout.
